According to patent publication US20250388605A1, “HETEROBIFUNCTIONAL COMPOUNDS AND METHODS OF TREATING DISEASE” (Halda Therapeutics OpCo, Inc., priority 2022, published 2025):

Molecular target: T1, progesterone receptor ligand binding domain (GST-tagged PR LBD) (Homo sapiens, UniProt P06401)
T1 construct: purchased Life Technologies A15905 or a15906
T1 sequence (P06401 679-913 limits assumed): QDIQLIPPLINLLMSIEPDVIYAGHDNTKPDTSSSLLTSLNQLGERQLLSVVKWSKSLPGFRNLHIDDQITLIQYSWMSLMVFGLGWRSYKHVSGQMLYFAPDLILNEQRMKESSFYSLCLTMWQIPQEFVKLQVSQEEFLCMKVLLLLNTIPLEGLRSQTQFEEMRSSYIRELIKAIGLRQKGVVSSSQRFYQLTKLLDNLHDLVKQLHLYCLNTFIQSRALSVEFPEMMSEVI
Test: FP Assay for Binding Affinity to Progesterone Receptor (PolarScreen Progesterone Receptor Competitor Assay Kit)
Conditions: fluorescence polarization, Fluormone tracer, 2 hours at room temperature
Procedure: Exemplary compounds were tested for ability to bind to the progesterone receptor ligand binding domain (LBD).
Compounds were tested using the PolarScreen™ Progesterone Receptor Competitor Assay Kit (Life Technologies Cat #A15905 or a15906), as per the manufacturer's instructions. Briefly, GST-tagged PR LBD, Fluormone tracer, and compound were mixed and incubated for 2 hours at room temperature in the dark. Following incubation, the plates were spun at 3000×g for 30 seconds, then sealed with an optical adhesive cover, and fluorescence polarization was measured using appropriate excitation and emission filters with an EnVision Plate Reader (Perkin Elmer). Compound concentration vs. mP value were plotted in Prism (GraphPad). A four-parameter non-linear regression curve fit was applied to dose-response data to determine the half-maximal inhibitory concentration (IC50) for each test compound.

Row | IC50 | SMILES
1 | 500 to 2500 nM | CCS(=O)(=O)Nc1ccc(Oc2cccc(N3CC4(CN(CC5CCN(c6ncc(C(=O)N[C@H]7C(C)(C)[C@H](Oc8ccc(C#N)c(Cl)c8)C7(C)C)cn6)CC5)C4)C3)c2)c(-c2cn(C)c(=O)c3[nH]ccc23)c1 [Compound I-35, N-((1r, 3r)-3-(3-chloro-4-cyanophenoxy)-2,2,4,4-tetramethylcyclobutyl)-2-(4-((6-(3-(4-(ethylsulfonamido)-2-(6-methyl-7-oxo-6,7-dihydro-1H-pyrrolo[2,3-c]pyridin-4-yl)phenoxy)phenyl)-2,6-diazaspiro[3.3]heptan-2-yl)methyl)piperidin-1-yl)pyrimidine-5-carboxamide]
2 | > 2500 nM | CCS(=O)(=O)Nc1ccc(Oc2cccc(OC3CCC4(CC3)CCN(c3ncc(C(=O)N[C@H]5C(C)(C)[C@H](Oc6ccc(C#N)c(Cl)c6)C5(C)C)cn3)CC4)c2)c(-c2cn(C)c(=O)c3[nH]ccc23)c1 [Compound I-45]
3 | > 2500 nM | CCS(=O)(=O)Nc1ccc(Oc2cccc(N3CC(OC4CCN(c5ncc(C(=O)N[C@H]6C(C)(C)[C@H](Oc7ccc(C#N)c(Cl)c7)C6(C)C)cn5)CC4)C3)c2)c(-c2cn(C)c(=O)c3[nH]ccc23)c1 [Compound I-80]
4 | 50 to 500 nM | Cn1cc(-c2cc(C(C)(C)O)ccc2Oc2cccc(OCCN3CCN(c4ncc(C(=O)N[C@H]5C(C)(C)[C@H](Oc6ccc(C#N)c(Cl)c6)C5(C)C)cn4)CC3)c2F)c2cc[nH]c2c1=O [Compound I-99]
5 | > 2500 nM | CCS(=O)(=O)Nc1ccc(Oc2cccc(OC3CC(C4CCN(c5ncc(C(=O)N[C@H]6C(C)(C)[C@H](Oc7ccc(C#N)c(Cl)c7)C6(C)C)cn5)CC4)C3)c2)c(-c2cn(C)c(=O)c3[nH]ccc23)c1 (stereo partly shown) [Compound I-104]
6 | > 2500 nM | CCS(=O)(=O)Nc1ccc(Oc2ccc(OCC3CCN(c4ncc(C(=O)N[C@H]5C(C)(C)[C@H](Oc6ccc(C#N)c(Cl)c6)C5(C)C)cn4)CC3)cc2)c(-c2cn(C)c(=O)c3[nH]ccc23)c1 [Compound I-138]
7 | > 2500 nM | Cn1cc(-c2cc(C(C)(C)O)ccc2Oc2ccc(CC3CCN(c4ncc(C(=O)N[C@H]5C(C)(C)[C@H](Oc6ccc(C#N)c(Cl)c6)C5(C)C)cn4)CC3)cc2)c2cc[nH]c2c1=O [Compound I-201]
8 | > 2500 nM | Cn1cc(-c2cc(C(C)(C)O)ccc2Oc2ccc(OCC3CCN(c4ncc(C(=O)N[C@H]5C(C)(C)[C@H](Oc6ccc(C#N)c(Cl)c6)C5(C)C)cn4)CC3)cc2)c2cc[nH]c2c1=O [Compound I-202]
9 | > 2500 nM | Cn1cc(-c2cc(C(C)(C)O)ccc2Oc2ccc(CCC3CCN(c4ncc(C(=O)N[C@H]5C(C)(C)[C@H](Oc6ccc(C#N)c(Cl)c6)C5(C)C)cn4)CC3)cc2)c2cc[nH]c2c1=O [Compound I-203]
10 | 50 to 500 nM | Cn1cc(-c2cc(C(C)(C)O)ccc2Oc2ccc(OCCN3CCN(c4ncc(C(=O)N[C@H]5C(C)(C)[C@H](Oc6ccc(C#N)c(Cl)c6)C5(C)C)cn4)CC3)cc2)c2cc[nH]c2c1=O [Compound I-204]
11 | 50 to 500 nM | CN(C1CCN(c2ncc(C(=O)N[C@H]3C(C)(C)[C@H](Oc4ccc(C#N)c(Cl)c4)C3(C)C)cn2)CC1)C1CN(c2ccc(Oc3ccc(C(C)(C)O)cc3-c3cn(C)c(=O)c4[nH]ccc34)cc2)C1 [Compound I-208]
12 | 50 to 500 nM | Cn1cc(-c2cc(C(C)(C)O)ccc2Oc2ccc(N3CC4(C3)CN(c3ncc(C(=O)N[C@H]5C(C)(C)[C@H](Oc6ccc(C#N)c(Cl)c6)C5(C)C)cn3)CCO4)cc2)c2cc[nH]c2c1=O [Compound I-212]
13 | < 50 nM | CC(C)N(CC1CCN(c2ncc(C(=O)N[C@H]3C(C)(C)[C@H](Oc4ccc(C#N)c(Cl)c4)C3(C)C)cn2)CC1)[C@H]1C[C@H](Oc2cccc(Oc3ccc(C(C)(C)O)cc3-c3cn(C)c(=O)c4[nH]ccc34)c2F)C1 [Compound I-214]
14 | 50 to 500 nM | Cn1cc(-c2cc(C(C)(C)O)ccc2Oc2cccc(N3CC4(CN(c5ncc(C(=O)N[C@H]6C(C)(C)[C@H](Oc7ccc(C#N)c(Cl)c7)C6(C)C)cn5)CCO4)C3)c2F)c2cc[nH]c2c1=O [Compound I-216]
15 | < 50 nM | CCS(=O)(=O)c1ccc(Oc2cccc(OCCN3CCN(c4ncc5c(n4)CN([C@H]4C(C)(C)[C@H](Oc6ccc(C#N)c(Cl)c6)C4(C)C)C5=O)CC3)c2F)c(-c2cn(C)c(=O)c3[nH]ccc23)c1 [Compound I-217]
16 | 50 to 500 nM | Cn1cc(-c2cc(C(C)(C)O)ccc2Oc2ccc(N3CC(OC4CCN(c5ncc(C(=O)N[C@H]6C(C)(C)[C@H](Oc7ccc(C#N)c(Cl)c7)C6(C)C)cn5)CC4)C3)cc2)c2cc[nH]c2c1=O [Compound I-219]
17 | 50 to 500 nM | CCS(=O)(=O)c1ccc(Oc2ccc(OCC3CCN(c4ncc5c(n4)CN([C@H]4C(C)(C)[C@H](Cc6ccc(C#N)c(Cl)c6)C4(C)C)C5=O)CC3)cc2)c(-c2cn(C)c(=O)c3[nH]ccc23)c1 [Compound I-220]
18 | 50 to 500 nM | CC(C)N(C1CCN(c2ncc(C(=O)N[C@H]3C(C)(C)[C@H](Oc4ccc(C#N)c(Cl)c4)C3(C)C)cn2)CC1)C1CN(c2cccc(Oc3ccc(C(C)(C)O)cc3-c3cn(C)c(=O)c4[nH]ccc34)c2F)C1 [Compound I-221]
19 | 50 to 500 nM | CCS(=O)(=O)c1ccc(OC(CCCCN2CCN(c3ncc(C(=O)NC4C(C)(C)C(Oc5ccc(C#N)c(Cl)c5)C4(C)C)cn3)CC2)C2CC2)c(-c2cn(C)c(=O)c3[nH]ccc23)c1 (stereo not shown) [Compound I-223, N-[3-(3-chloro-4-cyano-phenoxy)-2,2,4,4-tetramethyl-cyclobutyl]-2-[4-[5-cyclopropyl-5-[4-ethylsulfonyl-2-(6-methyl-7-oxo-1H-pyrrolo[2,3-c]pyridin-4-yl)phenoxy]pentyl]piperazin-1-yl]pyrimidine-5-carboxamide]
20 | 50 to 500 nM | Cn1cc(-c2cc(C(C)(C)O)ccc2Oc2ccc(N3CC(CN4CC5CC4CN5c4ncc(C(=O)N[C@H]5C(C)(C)[C@H](Oc6ccc(C#N)c(Cl)c6)C5(C)C)cn4)C3)cc2)c2cc[nH]c2c1=O (stereo partly shown) [Compound I-228]
21 | 500 to 2500 nM | Cn1cc(-c2cc(C(C)(C)O)ccc2Oc2ccc(N3CC(CC4CCN(c5ncc(C(=O)N[C@H]6C(C)(C)[C@H](Oc7ccc(C#N)c(Cl)c7)C6(C)C)cn5)CC4)C3)cc2)c2cc[nH]c2c1=O [Compound I-232]
22 | 50 to 500 nM | CN(C1CN(c2ccc(Oc3ccc(C(C)(C)O)cc3-c3cn(C)c(=O)c4[nH]ccc34)cc2)C1)C1CN(c2ncc(C(=O)N[C@H]3C(C)(C)[C@H](Oc4ccc(C#N)c(Cl)c4)C3(C)C)cn2)C1 [Compound I-238]
23 | 50 to 500 nM | CN(CC1CCN(c2ncc(C(=O)N[C@H]3C(C)(C)[C@H](Oc4ccc(C#N)c(Cl)c4)C3(C)C)cn2)CC1)C1(c2ccc(Oc3ccc(C(C)(C)O)cc3-c3cn(C)c(=O)c4[nH]ccc34)cc2)COC1 [Compound I-255]
24 | 50 to 500 nM | Cn1cc(-c2cc(C(C)(C)O)ccc2Oc2ccc(CCCC3CC4(C3)CN(c3ncc(C(=O)N[C@H]5C(C)(C)[C@H](Oc6ccc(C#N)c(Cl)c6)C5(C)C)cn3)C4)cc2)c2cc[nH]c2c1=O [Compound I-268]
25 | 50 to 500 nM | Cn1cc(-c2cc(C(C)(C)O)ccc2Oc2ccc(N3CC(CC4CN(c5ncc(C(=O)N[C@H]6C(C)(C)[C@H](Oc7ccc(C#N)c(Cl)c7)C6(C)C)cn5)C4)C3)cc2)c2cc[nH]c2c1=O [Compound I-280]

Molecular target: T2, progesterone receptor (Homo sapiens, UniProt P06401)
T2 sequence (P06401 679-933 limits assumed): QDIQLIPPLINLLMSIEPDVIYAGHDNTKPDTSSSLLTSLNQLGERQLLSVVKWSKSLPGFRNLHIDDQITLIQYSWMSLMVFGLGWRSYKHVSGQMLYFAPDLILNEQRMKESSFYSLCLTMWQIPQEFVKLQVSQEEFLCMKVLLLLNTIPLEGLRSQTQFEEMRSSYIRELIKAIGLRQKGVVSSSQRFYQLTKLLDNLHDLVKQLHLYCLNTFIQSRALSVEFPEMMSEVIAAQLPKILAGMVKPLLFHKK
Test: PR Human Progesterone NHR Binding (Agonist Radioligand) Assay, [3H]progesterone, T47D cytosolic fractions
Conditions: 0.5 nM [3H]progesterone, 1 hour at 4° C.
Procedure: Exemplary compounds were tested for ability to bind to the progesterone receptor.
Compounds were tested using the PR Human Progesterone NHR Binding (Agonist Radioligand) Assay, Cerep at Eurofins Discovery using a modified version of the protocol from Sarup et al. (Cancer Res 1988; 48:5071-5078). Briefly, cytosolic fractions of T47D cells were incubated with 0.5 nM [^3H]progesterone for 1 hour at 4° C. in the absence or presence of the test compound. Nonspecific binding was determined in the presence of […] promegestone. Reactions were subjected to scintillation counting. Results are expressed as a percent inhibition of the control radioligand specific binding.

Row | Ki | SMILES
26 | < 50 nM | CCS(=O)(=O)Nc1ccc(Oc2cccc(CCOC3CCN(c4ncc(C(=O)N[C@H]5C(C)(C)[C@H](Oc6ccc(C#N)c(Cl)c6)C5(C)C)cn4)CC3)c2)c(-c2cn(C)c(=O)c3[nH]ccc23)c1 [Compound I-19]
27 | < 50 nM | CCS(=O)(=O)c1ccc(Oc2cccc(OCCOC3CCN(c4ccc(C(=O)N[C@H]5C(C)(C)[C@H](Oc6ccc(C#N)c(Cl)c6)C5(C)C)cn4)CC3)c2F)c(-c2cn(C)c(=O)c3[nH]ccc23)c1 [Compound I-185]
28 | < 50 nM | Cn1cc(-c2cc(C(C)(C)O)ccc2Oc2ccc(N3CC(CC4CCN(c5ncc(C(=O)N[C@H]6C(C)(C)[C@H](Oc7ccc(C#N)c(Cl)c7)C6(C)C)cn5)CC4)C3)cc2)c2cc[nH]c2c1=O [Compound I-232]
